# Laboratory results taken from article PMC7333658, “Identification and Quantification of Novel Major Metabolites of the Steroidal Aromatase Inhibitor, Exemestane” (Drug Metabolism and Disposition, 2018).
# Values joined by “and” are separate entries in the source; they are usually repeats but may differ in a detail not shown here. Identical values can stand only once.
# Key:
# [1] = UPLC-MS/MS quantification of EXE and its metabolites in urine of subjects taking EXE; assay type: in vivo, human; details: for Urine Percentage of TEM (Mean ± S.E.): TEM = EXE + 17β-DHE + 17β-DHE-Gluc + 6-EXE-cys + 6-DHE-cys, calculated per subject, then mean of 132; for Urine concentration, Mean ± S.E. / Urine concentration, Range: n = 132 subjects; for Urine concentration, Mean ± S.E.: 25 mg EXE daily orally for at least 28 days, sampled 4-6 hours after pill; for Urine concentration, Range: 25 mg EXE daily orally, 4-6 hours after pill
# Description: (§1) One hundred and thirty-two postmenopausal breast cancer patients (one Hispanic, two African Americans, two Asians, and 127 Caucasians; age range: 35–89 years) with ER+ breast tumors were recruited into this study from the Breast Oncology Clinic at the Penn State Hershey Cancer Institute. Approval was obtained from the Institutional Review Board at Penn State University with informed consent obtained from all subjects. Subjects took a single pill (25 mg) of EXE daily (orally) for at least 28 consecutive days and provided blood (10 ml) and urine (up to 50 ml) specimens between 4 and 6 hours after pill ingestion as described previously ([Luo et al., 2018]). Blood was separated by centrifugation at 1300g for 15 minutes at room temperature. Aliquoted plasma and buffy coat fractions of blood samples and aliquoted urine samples were stored at −80°C until analysis. As a control for EXE metabolism, specimens obtained from women not taking EXE who were recruited into other studies at Penn State University College of Medicine (Hershey, PA; n = 10) were also examined to exclude false positives ([Ashmore et al., 2013]).
# For EXE metabolite analysis in urine, a 2.5-µl aliquot of each urine sample was first spiked with 2.5 µl of the same deuterium-labeled internal standard mixture described earlier. Ten microliters of 75% methanol was then added to extract EXE and its metabolites. After vortexing and subsequent centrifugation at 16,100g for 10 minutes at 4°C, 10 µl of the supernatant was transferred to a sample vial and mixed with 5 µl of water prior to analysis by UPLC-MS.
# (§2) For the simultaneous quantification of EXE, 17β-DHE, 17β-DHE-Gluc, 6-EXE-cys, and 6-17β-DHE-cys, urine and plasma samples were prepared as described earlier. Using the same UPLC-MS system described earlier, UPLC was performed with solvent A (5 mM ammonium formate and 0.01% formic acid in water) and solvent B (100% acetonitrile) using the following conditions for both urine and plasma specimens: 0–1.5 minutes at 25% solvent B, a linear gradient to 52% solvent B for 1.5–2.5 minutes, 2.5–4.5 minutes at 52% solvent B, a linear gradient to 95% solvent B from 4.5 to 5 minutes, 5–9.5 minutes at 95% solvent B, followed by a linear gradient to initial conditions of 25% solvent B from 9.5 to 10 minutes. This was followed by a 1-minute run at 25% solvent B to equilibrate the column to initial conditions before the next sample injection. The flow rate was 0.4 ml/min from 0 to 5 minutes, 0.8 ml/min from 5 to 9.5 minutes, and back to 0.4 ml/min from 9.5 to 10 minutes. The injection volume of each prepared urine and plasma sample was 5 µl. The column temperature was 35°C. The Waters XEVO G2-S QTOF MS was operated in tandem mass spectrometry (MS/MS) mode, with the electrospray ionization probe operated in the positive-ion mode and a capillary voltage at 0.6 kV. The cone and desolvation gas flow rates were maintained at 50 and 800 l/h, respectively, and the collision gas flow rate was 0.1 l/h. The source and desolvation gas temperatures were 120°C and 500°C, respectively, and the dwell time for each ion was 300 ms.
# The limits of quantification for EXE, 17β-DHE, 17β-DHE-Gluc, 6-EXE-cys, and 6-17β-DHE-cys were 2.1, 1.6, 1.2, 0.7, and 7.2 nM in plasma, respectively, and 2.1, 1.6, 6.3, 1.5, and 7.2 nM in urine, respectively. Standard curves were constructed by plotting the ratio of analyte peak area to peak area of the corresponding internal standard (described earlier) versus concentration of analyte standard. The concentrations of stock standards were 1000 ppm. A serial dilution of standards at concentrations ranging from 1.6 nM to 1.7 μM, 1.6 nM to 1.7 μM, 1.0 nM to 2.1 μM, 0.7 nM to 12 μM, and 4.6 nM to 2.4 μM was used to establish standard curves for EXE, 17β-DHE, 17β-DHE-Gluc, 6-EXE-cys, and 6-17β-DHE-cys, respectively. […]
# [2] = UPLC-MS/MS quantification of EXE and its metabolites in plasma of subjects taking EXE; assay type: in vivo, human; details: for Plasma Percentage of TEM (Mean ± S.E.): TEM = EXE + 17β-DHE + 17β-DHE-Gluc + 6-EXE-cys + 6-DHE-cys, calculated per subject, then mean of 132; for Plasma concentration, Mean ± S.E. / Plasma concentration, Range: n = 132 subjects; for Plasma concentration, Mean ± S.E.: 25 mg EXE daily orally for at least 28 days, sampled 4-6 hours after pill; for Plasma concentration, Range: 25 mg EXE daily orally, 4-6 hours after pill
# Description: as §1
# To quantify in vivo levels of EXE and its metabolites, the sample preparation method was modified from that described earlier for metabolite identification. For EXE metabolite analysis in plasma, a 2.5-µl aliquot of each plasma sample was first spiked with 2.5 µl of a mixture of deuterium-labeled internal standards in methanol [D3-EXE (0.17 μM), D3-17β-DHE (1.7 μM), 17β-OH-EXE-d3-17-O-β-D-glucuronide (0.52 μM), D3-6-EXE-cys (0.06 μM), and D3-6-17β-DHE-cys (0.25 μM)]. Twenty microliters of pure methanol was then added to extract EXE and its metabolites and to precipitate proteins. After vortexing and subsequent centrifugation at 16,100g for 10 minutes at 4°C, 15 µl of the supernatant was transferred to a sample vial and mixed with 15 µl of water prior to analysis by UPLC-MS.
# as §2
# The limits of quantification for EXE, 17β-DHE, 17β-DHE-Gluc, 6-EXE-cys, and 6-17β-DHE-cys were 2.1, 1.6, 1.2, 0.7, and 7.2 nM in plasma, respectively, and 2.1, 1.6, 6.3, 1.5, and 7.2 nM in urine, respectively. Standard curves were constructed by plotting the ratio of analyte peak area to peak area of the corresponding internal standard (described earlier) versus concentration of analyte standard. The concentrations of stock standards were 1000 ppm. […]
# [3] = in vivo; cited from earlier work
# [4] = ref Luo et al., 2018, cited from earlier work
Structure (SMILES),"Urine concentration range as printed in the discussion ([1]; female, human, in vivo) [pM]",Urine Percentage of TEM (Mean ± S.E.) ([1]; urine),"Urine concentration, Mean ± S.E. ([1]; urine)","Urine concentration, Range ([1]; urine)",Plasma Percentage of TEM (Mean ± S.E.) ([2]; plasma),"Plasma concentration, Mean ± S.E. ([2]; plasma)","Plasma concentration, Range ([2]; plasma) [nM]",other results
"C[C@]12C=CC(=O)C=C1C(CSC[C@H](N)C(=O)O)C[C@@H]1[C@@H]2CC[C@]2(C)C(=O)CC[C@@H]12 (single isomer, unassigned) [6-EXE-cys, 6-methylcysteinylandrosta-1,4-diene-3,17-dione]",3.3 to 50000,–,–,–,–,–,–,"Share of the total mean cysteine conjugate levels in urine ([1]; female, human, in vivo): 77%; Share of the total mean cysteine conjugate levels in plasma ([2]; female, human, in vivo): 79%"
"C[C@]12CC[C@H]3[C@@H](CC(CSC[C@H](N)C(=O)O)C4=CC(=O)C=C[C@@]43C)[C@@H]1CC[C@@H]2O (stereo partly drawn) [6-17β-DHE-cys, 6-methylcysteinylandrosta-1,4-diene-17β-hydroxy-3-one]",3.3 to 10000,–,–,–,–,–,–,–
CSc1ncnc2c1ncn2[C@@H]1O[C@H](CO)[C@@H](O)[C@H]1O [6-methylmercaptopurine riboside],–,–,–,–,–,–,–,Fold lower levels in GSTM1-null genotype than in carriers of one or two copies of GSTM1 [3]: 2 fold
"C=C1CC2C(CCC3(C)C(O)CCC23)C2(C)C=CC(=O)C=C12 (stereo not drawn) [17β-DHE, 17β-dihydro-EXE]",–,0.14% and 0.14 ± 0.025%,0.0066 nmol/mg creatinine and 0.0066 ± 0.0012 nmol/mg creatinine,0–0.099 nmol/mg creatinine,12% and 12 ± 1.2%,2.5 nM and 2.5 ± 0.19 nM,0.11 to 14,Increase in plasma level with increasing numbers of the UGT2B17 deletion allele ([4]; same women taking EXE): 1.3 fold; Fold lower average percentage of TEM than 17β-DHE-Gluc ([2]; plasma): 3 fold
"C=C1C[C@H]2[C@@H]3CC[C@H](O[C@@H]4O[C@H](C(=O)O)[C@@H](O)[C@H](O)[C@H]4O)[C@@]3(C)CC[C@@H]2[C@@]2(C)C=CC(=O)C=C12 [17β-DHE-Gluc, 17β-hydroxy-EXE-17-O-β-D-glucuronide]",–,21% and 21 ± 1.6%,1.4 nmol/mg creatinine and 1.4 ± 0.37 nmol/mg creatinine,0.0068–45 nmol/mg creatinine,36% and 36 ± 1.8%,30 nM and 30 ± 4.6 nM,0.32 to 358,"Decrease in plasma level with increasing numbers of the UGT2B17 deletion allele ([4]; women taking EXE): up to 29 fold; Ratio of mean combined cysteine conjugates (6-EXE-cys plus 6-17β-DHE-cys) to 17β-DHE-Gluc in urine ([1]; urine, 17β-DHE-Gluc is the lower): 5.5 fold"
"C=C1C[C@@H]2[C@H](CC[C@]3(C)C(=O)CC[C@@H]23)[C@@]2(C)C=CC(=O)C=C12 [EXE, Exemestane]",–,1.7% and 1.7 ± 0.20%,0.21 ± 0.045 nmol/mg creatinine,0–3.2 nmol/mg creatinine,17% and 17 ± 0.91%,14 nM and 14 ± 1.7 nM,0 to 105,–
